pIC50: −log10 of the molar value.
Key:
RET-wt = RET-wt (Homo sapiens (Human), UniProt P07949); experiment: HTRF KinEASE-TK kinase activity test, RET-wt; format: biochemical; conditions: for pIC50: HTRF kinase assay; for inhibitory activity against RET-wt compared to that of cabozantinib: versus cabozantinib
RET V804M = RET V804M (Homo sapiens (Human), UniProt P07949, V804M); experiment: HTRF KinEASE-TK kinase activity test, RET V804M; format: biochemical; conditions: for pIC50: HTRF kinase assay; for inhibitory activity against RET V804M compared to that of cabozantinib: versus cabozantinib
RET G810R = RET G810R (Homo sapiens (Human), UniProt P07949, G810R); experiment: HTRF KinEASE-TK kinase activity test, RET G810R; conditions: for inhibitory activity against RET G810R relative to that of selpercatinib (LOXO-292): fold versus selpercatinib (LOXO-292); for pIC50: read-out: RET G810R IC50, HTRF kinase assay
RET G810R, sequence (P07949 29-1114 G810R): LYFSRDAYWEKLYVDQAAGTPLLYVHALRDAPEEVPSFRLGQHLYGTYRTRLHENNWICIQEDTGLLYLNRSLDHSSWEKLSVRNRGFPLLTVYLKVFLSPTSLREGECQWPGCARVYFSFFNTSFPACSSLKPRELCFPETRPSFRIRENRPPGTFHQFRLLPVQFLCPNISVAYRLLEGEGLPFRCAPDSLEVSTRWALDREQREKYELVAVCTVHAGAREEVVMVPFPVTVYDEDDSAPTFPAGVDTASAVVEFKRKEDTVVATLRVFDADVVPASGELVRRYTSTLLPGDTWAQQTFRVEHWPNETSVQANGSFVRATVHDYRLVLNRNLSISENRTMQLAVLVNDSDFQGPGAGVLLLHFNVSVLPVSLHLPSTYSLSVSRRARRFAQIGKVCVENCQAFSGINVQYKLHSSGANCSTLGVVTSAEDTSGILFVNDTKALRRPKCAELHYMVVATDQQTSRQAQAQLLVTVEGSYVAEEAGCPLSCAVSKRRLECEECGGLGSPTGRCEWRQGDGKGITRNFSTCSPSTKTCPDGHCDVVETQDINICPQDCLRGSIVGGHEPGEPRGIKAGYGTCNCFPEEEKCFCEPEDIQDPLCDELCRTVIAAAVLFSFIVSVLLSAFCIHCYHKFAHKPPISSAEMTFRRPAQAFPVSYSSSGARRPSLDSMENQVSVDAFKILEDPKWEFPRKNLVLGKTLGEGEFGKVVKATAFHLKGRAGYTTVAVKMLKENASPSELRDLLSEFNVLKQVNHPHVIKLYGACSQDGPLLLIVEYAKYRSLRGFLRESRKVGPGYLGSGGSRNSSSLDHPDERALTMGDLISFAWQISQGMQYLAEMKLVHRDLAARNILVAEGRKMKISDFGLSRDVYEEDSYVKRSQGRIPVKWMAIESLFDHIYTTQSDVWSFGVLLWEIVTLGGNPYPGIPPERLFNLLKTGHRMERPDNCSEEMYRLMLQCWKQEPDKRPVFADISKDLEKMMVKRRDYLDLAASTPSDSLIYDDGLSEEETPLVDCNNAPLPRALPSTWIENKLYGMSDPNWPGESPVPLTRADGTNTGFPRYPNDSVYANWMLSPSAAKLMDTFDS

RET V804M, sequence (P07949 29-1114 V804M): as the sequence (P07949 29-1114 G810R) above, with V776M, R782G counted along it
RET-wt, sequence (P07949 29-1114): as the sequence (P07949 29-1114 G810R) above, with R782G counted along it

pIC50 (RET-wt) | inhibitory activity against RET-wt compared to that of cabozantinib (RET-wt) | pIC50 (RET V804M) | inhibitory activity against RET V804M compared to that of cabozantinib (RET V804M) | inhibitory activity against RET G810R relative to that of selpercatinib (LOXO-292) (RET G810R) [times] | pIC50 (RET G810R) | Structure (SMILES)
10.00 | significantly superior | 10.00 | significantly superior | ≥ 10 | 9.10 | CCOc1cc(-c2ccc(N3CC[C@H](NC(=O)c4c(F)cccc4Cl)[C@@H](O)C3)nc2)c2c3cn[nH]c3nn2c1 [Compound 44, 2-chloro-N-((3S,4S)-1-(5-(6-ethoxy-1H-pyrazolo[3′,4′:3,4]pyrazolo[1,5-α]pyridin-4-yl)pyridin-2-yl)-3-hydroxypiperidin-4-yl)-6-fluorobenzamide]
10.00 | significantly superior | 10.30 | significantly superior | ≥ 10 | 8.85 | CCOc1cc(-c2ccc(N3CC[C@H](NC(=O)c4ncccc4Cl)[C@H](O)C3)nc2)c2c3cn[nH]c3nn2c1 [Compound 42]
10.00 | significantly superior | 9.70 | significantly superior |  | 8.11 | CCOc1cc(-c2ccc(N3CC[C@H](NC(=O)OC(C)(C)C)[C@@H](O)C3)nc2)c2c3cn[nH]c3nn2c1 [Compound 88, Tert-butyl ((3S,4S)-1-(5-(6-ethoxy-1H-pyrazolo[3′,4′:3,4]pyrazolo[1,5-α]pyridin-4-yl)pyridin-2-yl)-3-hydroxypiperidin-4-yl)carbamate]
10.00 | significantly superior | 10.00 | significantly superior | ≥ 10 | 8.54 | CCOc1cc(-c2ccc(N3CCC(C)(NC(=O)c4ncccc4Cl)CC3)nc2)c2c3cn[nH]c3nn2c1 [Compound 3, 3-chloro-N-(1-(5-(6-ethoxy-1H-pyrazolo[3′,4′:3,4]pyrazolo[1,5-α]pyridin-4-yl)pyridin-2-yl)-4-methylpiperidin-4-yl)-2-picolinamide]
10.00 | significantly superior | 10.22 | significantly superior | ≥ 10 | 8.80 | CCOc1cc(-c2ccc(N3CC[C@H](NC(=O)c4cc(F)ccc4C)[C@@H](O)C3)nc2)c2c3cn[nH]c3nn2c1 [Compound 46]
10.00 | significantly superior | 10.52 | significantly superior | ≥ 10 | 8.64 | CCOc1cc(-c2ccc(N3CCC(C)(NC(=O)c4ncc(F)cc4Cl)CC3)nc2)c2c3cn[nH]c3nn2c1 [Compound 4]
10.00 | significantly superior | 10.00 | significantly superior |  | 8.38 | CCOc1cc(-c2ccc(N3CC[C@H](NC(=O)CC(C)C)[C@@H](O)C3)nc2)c2c3cn[nH]c3nn2c1 [Compound 39]
10.00 | significantly superior | 10.00 | significantly superior | ≥ 10 | 9.44 | CCOc1cc(-c2ccc(N3CCC(CO)(NC(=O)c4c(F)cccc4F)CC3)nc2)c2c3cn[nH]c3nn2c1 [Compound 11, N-(1-(5-(6-ethoxy-1H-pyrazolo[3′,4′:3,4]pyrazolo[1,5-α]pyridin-4-yl)pyridin-2-yl)-4-(hydroxymethyl)piperidin-4-yl)-2,6-difluorobenzamide]
 |  |  |  |  | 7.18 | CCOc1cc(-c2ccc(N3CCCC4(CCN(Cc5ccc(OC)nc5)CC4)C3)nc2)c2c3cn[nH]c3nn2c1 [Compound 219, 6-ethoxy-4-(6-(9-((6-methoxypyridin-3-yl)methylene)-2,9-diazaspiro[5.5]undecan-2-yl)pyridin-3-yl)-1H-pyrazolo[3′,4′:3,4]pyrazolo[1,5-α]pyridine]
 |  |  |  | ≥ 10 | 8.46 | CCOc1cc(-c2ccc(N3C[C@H]4C[C@H](NC(=O)c5c(F)cccc5Cl)C[C@H]4C3)nc2)c2c3cn[nH]c3nn2c1 [Compound 174]
 |  |  |  | ≥ 10 | 8.70 | CCOc1cc(-c2ccc(N3CC[C@H](NC(=O)C(C)C(C)C)[C@@H](O)C3)nc2)c2c3cn[nH]c3nn2c1 (stereo partly shown) [Compound 89]
 |  |  |  | ≥ 10 | 8.66 | CCOc1cc(-c2ccc(N3CC[C@H](NC(=O)c4ccccc4C(F)(F)F)[C@H](O)C3)nc2)c2c3cn[nH]c3nn2c1 [Compound 279, N-((3R,4S)-1-(5-(6-ethoxy-1H-pyrazolo[3′,4′:3,4]pyrazolo[1,5-α]pyridin-4-yl)pyridin-2-yl)-3-hydroxypiperidin-4-yl)-2-(trifluoromethyl)benzamide]
 |  |  |  |  | 7.33 | CCOc1cc(-c2ccc(N3CCC4(CCCN(C(=O)c5c(F)cccc5Cl)C4)CC3)nc2)c2c3cn[nH]c3nn2c1 [Compound 214]
 |  |  |  |  | 8.09 | CCOc1cc(-c2ccc(N3C[C@@H]4[C@H](C3)[C@@H]4NC(=O)c3c(F)cccc3Cl)nc2)c2c3cn[nH]c3nn2c1 [Compound 172, 2-chloro-N-((1R,5S,6R)-3-(5-(6-ethoxy-1H-pyrazolo[3′,4′:3,4]pyrazolo[1,5-α]pyridin-4-yl)pyridin-2-yl)-3-azabicyclo[3.1.0]hexan-6-yl)-6-fluorobenzamide]
 |  |  |  |  | 7.99 | CCOc1cc(-c2ccc(N3CC[C@H](NC(=O)c4ncccc4F)[C@H](O)C3)nc2)c2c3cn[nH]c3nn2c1 [Compound 286, N-((3R,4S)-1-(5-(6-ethoxy-1H-pyrazolo[3′,4′:3,4]pyrazolo[1,5-α]pyridin-4-yl)pyridin-2-yl)piperidin-3-hydroxypiperidin-4-yl)-3-fluoropicolinamide]
10.00 | significantly superior | 10.00 | significantly superior | ≥ 10 | 8.55 | CCOc1cc(-c2ccc(N3CC[C@H](NC(=O)C4(C(F)(F)F)CCC4)[C@@H](O)C3)nc2)c2c3cn[nH]c3nn2c1 [Compound 41]
 |  |  |  |  | 7.75 | CCOc1cc(-c2cnc(N3CC[C@H](NC(=O)c4ncccc4Cl)[C@@H](O)C3)cn2)c2c3cn[nH]c3nn2c1 [Compound 50]

Structure (SMILES) | pIC50 (RET-wt) | inhibitory activity against RET-wt compared to that of cabozantinib (RET-wt) | pIC50 (RET V804M) | inhibitory activity against RET V804M compared to that of cabozantinib (RET V804M) | inhibitory activity against RET G810R relative to that of selpercatinib (LOXO-292) (RET G810R) [times] | pIC50 (RET G810R)
CCOc1cc(-c2ccc(N3CC4CC(C3)N4Cc3ccc(OC)nc3)nc2)c2c3c(C#N)n[nH]c3nn2c1 [Compound 248, 3-cyano-6-ethoxy-4-(6-(6-((6-methoxypyridin-3-yl)methyl)-3,6-diazabicyclo[3.1.1]heptan-3-yl)pyridin-3-yl)-1H-pyrazolo[3′,4′:3,4]pyrazolo[1,5-α]pyridine] |  |  |  |  |  | 7.81
